Reference: ChEMBL document CHEMBL5528067, “From Synergy to Monotherapy: Discovery of Novel 2,4,6-Trisubstituted Triazine Hydrazone Derivatives with Potent Antifungal Potency In Vitro and In Vivo” (J Med Chem, 2024)
Values after ≈ are worked out from the molar mass of the structure shown. Active and inactive are the calls of the source. The rule behind the calls is not given here.

Tests used:
Candida albicans [1] = assay: Antifungal activity against FCZ-resistant Candida albicans strains assessed as growth inhibition in presence of FCZ measured after 48 hrs incubation by CLSI based micro-dilution broth method; assay type: functional
[2] = MRT (0 to t) in Sprague-Dawley rat at 2 mg/kg, iv measured upto 24 hrs by LC-MS/MS analysis; assay type: ADME, organism-based; settings: in vivo
Candida albicans [3] = assay: Antifungal activity against FCZ-resistant Candida albicans SC5314 assessed as reduction in CFU at 0.5 to 2 microg/ml measured at 24 hrs incubation by time kill assay (reference value: 5 log10 CFU/ml); assay type: functional; settings: dose 0.5-2 µg/ml
Pichia kudriavzevii = assay: Antifungal activity against FCZ-resistant Candida krusei 4996 assessed as growth inhibition at 4 microg/ml measured at 24 hrs incubation by time growth assay; assay type: functional, organism-based; settings: dose 4.0 µg/ml
Candida albicans [4] = assay: Antibiofilm activity against Candida albicans SC5314 assessed as biofilm disruption at 32 microg/ml incubated for 24 hrs by XTT/menadione reduction assay relative to control; assay type: functional; set-up: scale not given: the % may be the effect or the level left; settings: dose 32 µg/ml
Candida albicans [5] = assay: Suppression of ALS3 gene expression in Candida albicans SC5314 at 4 to 8 microg/ml by real time RT-PCR analysis; assay type: functional; settings: dose 4-8 µg/ml
Candida albicans [6] = assay: Induction of cell wall component change in Candida albicans SC5314 assessed as decrease in mannan content by measuring ConA fluorescence intensity at 4 microg/ml measured after 12 hrs by confocal laser-scanning microscopy; assay type: functional, organism-based; settings: dose 4.0 µg/ml
Candida albicans [7] = assay: Upregulation of EFG1 gene expression in Candida albicans SC5314 assessed as fold increase at 4 microg/ml by real time RT-PCR analysis relative to control; assay type: functional; settings: dose 4.0 µg/ml
Candida albicans [8] = assay: Antifungal activity against FCZ-resistant Candida albicans 10231 assessed as growth inhibition measured after 48 hrs incubation by CLSI based micro-dilution broth method; assay type: functional
[9] = Cytotoxicity against human HUVEC cells assessed as cell viability at 16 microg/ml measured after 24 hrs by CCK-8 assay relative to control; assay type: toxicity, cell-based; settings: at 16 µg/mL, read-out: Activity
Candida albicans [10] = assay: Antifungal activity against FCZ-resistant Candida albicans strain 904 assessed as growth inhibition in presence of fluconazole measured after 48 hrs incubation by CLSI based micro-dilution broth method; assay type: functional
[11] = AUC (0 to infinity) in Sprague-Dawley rat at 2 mg/kg, iv measured upto 24 hrs by LC-MS/MS analysis; assay type: ADME, organism-based; settings: in vivo
Candida albicans [12] = assay: Effect on ECE1 gene expression in Candida albicans SC5314 at 4 to 8 microg/ml by real time RT-PCR analysis; assay type: functional; settings: dose 4-8 µg/ml
[13] = Cytotoxicity against human HUVEC cells assessed as cell viability measured after 24 hrs by CCK-8 assay; assay type: toxicity, cell-based
Candida albicans [14] = assay: Induction of cell wall component change in Candida albicans SC5314 assessed as change in chitin content by measuring […] fluorescence intensity at 4 microg/ml measured after 12 hrs by confocal laser-scanning microscopy; assay type: functional, organism-based; settings: dose 4.0 µg/ml
Candida albicans [15] = assay: Synergistic antifungal activity against FCZ-resistant Candida albicans strain 904 assessed as fractional inhibitory concentration index measured after 48 hrs in presence of FCZ by CLSI based micro-dilution broth method; assay type: functional
[16] = Hemolytic activity in rabbit Red blood cell assessed as hemolysis rate at 64 microg/ml incubated for 1 hr; assay type: toxicity, cell-based, Oryctolagus cuniculus, Erythrocyte; settings: red blood cells, at 64 µg/mL, read-out: Activity
Candida tropicalis = assay: Antifungal activity against Candida tropicalis 8915 assessed as growth inhibition measured after 48 hrs incubation by CLSI based micro-dilution broth method; assay type: functional
Candida albicans [17] = assay: Antifungal activity against FCZ-resistant Candida albicans strain 901 assessed as growth inhibition measured after 48 hrs incubation by CLSI based micro-dilution broth method; assay type: functional
Cryptococcus neoformans = assay: Antifungal activity against Cryptococcus neoformans 32609 assessed as growth inhibition measured after 48 hrs incubation by CLSI based micro-dilution broth method; assay type: functional
Candida albicans [18] = assay: Synergistic antifungal activity against FCZ-resistant Candida albicans strain 901 assessed as fractional inhibitory concentration index measured after 48 hrs in presence of FCZ by CLSI based micro-dilution broth method; assay type: functional
[Candida] auris = Antifungal activity against FCZ-resistant Candida auris 918 assessed as growth inhibition measured after 48 hrs incubation by CLSI based micro-dilution broth method; assay type: functional; settings: Candidozyma auris
Candida parapsilosis = assay: Antifungal activity against Candida parapsilosis 22019 assessed as growth inhibition measured after 48 hrs incubation by CLSI based micro-dilution broth method; assay type: functional; settings: Lodderomyces parapsilosis
Candida albicans [19] = assay: Effect on HWP1 gene expression in Candida albicans SC5314 at 4 to 8 microg/ml by real time RT-PCR analysis; assay type: functional; settings: dose 4-8 µg/ml
Candida albicans [20] = assay: Antibiofilm activity against Candida albicans SC5314 assessed as inhibition of biofilm formation incubated for 24 hrs by XTT/menadione reduction assay; assay type: functional, organism-based; settings: dose 1-64 µg/ml
Candida albicans [21] = assay: Upregulation of SAP2 gene expression in Candida albicans SC5314 assessed as fold increase at 4 microg/ml by real time RT-PCR analysis relative to control; assay type: functional; settings: dose 4.0 µg/ml
Candida albicans [22] = assay: Upregulation of BCR1 gene expression in Candida albicans SC5314 assessed as fold increase at 4 microg/ml by real time RT-PCR analysis relative to control; assay type: functional; settings: dose 4.0 µg/ml
Candida albicans [23] = assay: Effect on of UME6 gene expression in Candida albicans SC5314 at 4 to 8 microg/ml by real time RT-PCR analysis; assay type: functional; settings: dose 4-8 µg/ml
Candida albicans [24] = assay: Antibiofilm activity against Candida albicans SC5314 assessed as inhibition of biofilm formation at 4 microg/ml incubated for 24 hrs by XTT/menadione reduction assay relative to control; assay type: functional; set-up: scale not given: the % may be the effect or the level left; settings: dose 4 µg/ml
Candida albicans [25] = assay: Suppression of EFG1 gene expression in Candida albicans SC5314 assessed as fold increase at 8 microg/ml by real time RT-PCR analysis relative to control; assay type: functional; settings: dose 8.0 µg/ml
Nakaseomyces glabratus = assay: Antifungal activity against Candida glabrata 537 assessed as growth inhibition measured after 48 hrs incubation by CLSI based micro-dilution broth method; assay type: functional
[26] = Volume of distribution at steady state in Sprague-Dawley rat at 2 mg/kg, iv measured upto 24 hrs by LC-MS/MS analysis; assay type: ADME, organism-based; settings: in vivo, read-out: Vdss
Candida albicans [27] = assay: Antifungal activity against FCZ-resistant Candida albicans strain 901 assessed as growth inhibition in presence of fluconazole measured after 48 hrs incubation by CLSI based micro-dilution broth method; assay type: functional
Candida albicans [28] = assay: Antibiofilm activity against Candida albicans SC5314 assessed as inhibition of biofilm formation at 64 microg/ml incubated for 24 hrs by XTT/menadione reduction assay relative to control; assay type: functional; set-up: scale not given: the % may be the effect or the level left; settings: dose 64 µg/ml
Candida albicans [29] = assay: Induction of cell wall component change in Candida albicans SC5314 assessed as irregular and shrunken cell membrane chitin structure at 4 microg/ml measured after 12 hrs by transmission electron microscopy; assay type: functional, organism-based; settings: dose 4.0 µg/ml
Candida albicans [30] = assay: Suppression of ALS1 gene expression in Candida albicans SC5314 at 4 to 8 microg/ml by real time RT-PCR analysis; assay type: functional; settings: dose 4-8 µg/ml
Candida albicans [31] = assay: Effect on sterol biosynthesis in Candida albicans SC5314 assessed as sterol component and content at 4 microg/ml measured after 8 hrs by GC-MS analysis; assay type: functional, organism-based; settings: dose 4.0 µg/ml
Candida albicans [32] = assay: Effect on of BRG1 gene expression in Candida albicans SC5314 at 4 to 8 microg/ml by real time RT-PCR analysis; assay type: functional; settings: dose 4-8 µg/ml

O=[N+]([O-])c1ccc(O)c(/C=N/Nc2nc(NCc3ccc(F)cc3)nc(NCc3ccc(F)cc3)n2)c1
MIC80 (Candida albicans [1]): 0.5 µg/mL | MRT last at 24 h [2]: 45 min | Activity (Candida albicans [3]): 3.2 log10CFU/ml | Activity (Pichia kudriavzevii): Active | Activity (Candida albicans [4]): <30% | Activity (Candida albicans [5]): Active | Activity (Candida albicans [6]): Active | fold change (FC) (Candida albicans [7]): 2.56 | MIC80 (Candida albicans [8]): 16 µg/mL (≈ 31.6 µM) | viability at 24 h, 16 microg/ml [9]: 75.5% | MIC80 (Candida albicans [10]): 0.25 µg/mL | AUC(0-inf) [11]: 1470 ng·h/mL | Activity (Candida albicans [12]): inactive | IC50 at 24 h [13]: 41.4 µg/mL (≈ 81.7 µM) | Activity (Candida albicans [14]): Active | fractional inhibitory concentration index (FICI) (Candida albicans [15]): 0.38 | hemolysis at 1 h, 64 microg/ml [16]: 4.92% | MIC80 (Candida tropicalis): 2 µg/mL (≈ 3.95 µM) | MIC80 (Candida albicans [17]): 2 µg/mL (≈ 3.95 µM) | MIC80 (Cryptococcus neoformans): 1 µg/mL (≈ 1.97 µM) | fractional inhibitory concentration index (FICI) (Candida albicans [18]): 0.25 | MIC80 ([Candida] auris): 2 µg/mL (≈ 3.95 µM) | MIC80 (Candida parapsilosis): 2 µg/mL (≈ 3.95 µM) | Activity (Candida albicans [19]): inactive | Activity (Candida albicans [20]): Dose-Dependent Effect | fold change (FC) (Candida albicans [21]): 1.86 | fold change (FC) (Candida albicans [22]): 1.9 | Activity (Candida albicans [23]): inactive | Activity (Candida albicans [24]): 40% | fold change (FC) (Candida albicans [25]): 1.52 | MIC80 (Nakaseomyces glabratus): 0.5 µg/mL (≈ 0.987 µM) | Vd [26]: 1.08 L/kg | MIC80 (Candida albicans [27]): 0.25 µg/mL | Activity (Candida albicans [28]): 70% | Activity (Candida albicans [29]): Active | Activity (Candida albicans [30]): Active | Activity (Candida albicans [31]): inactive | Activity (Candida albicans [32]): inactive
